Test results: patent US10662156B2, “Guanidine derivative and medical use thereof” (Toray Industries, Inc., priority 2016, dated 2020)
Counter-ions that a name gives are not always drawn.

Each compound was assayed against recombinant GST fusion MALT1 (human MALT1) (Homo sapiens (Human), UniProt Q9UDY8) (assay: Evaluation of inhibition of protease activity of MALT1 (cleavage of fluorescent peptide substrate Ac-LRSR-AMC)). Settings: substrate Ac-LRSR-AMC 20 μmol/L, 30° C. for 80 minutes.
Assay type: biochemical
Summary of the method: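 GST-tagged full-length human MALT1 from E. coli ([…]) was preincubated with compound 30 min at room temperature. Buffer: MES, 150 mM NaCl, 10% sucrose, 0.1% CHAPS, 10 mM DTT, 1 mol/L ammonium citrate. Ac-LRSR-AMC (20 μM final) was then cleaved 80 min at 30 °C; AMC fluorescence (Ex 380/Em 460) gain gave % inhibition versus no-enzyme and DMSO controls.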

Sequence of recombinant GST fusion MALT1 (human MALT1) (Q9UDY8 whole entry, the tested form may be a part): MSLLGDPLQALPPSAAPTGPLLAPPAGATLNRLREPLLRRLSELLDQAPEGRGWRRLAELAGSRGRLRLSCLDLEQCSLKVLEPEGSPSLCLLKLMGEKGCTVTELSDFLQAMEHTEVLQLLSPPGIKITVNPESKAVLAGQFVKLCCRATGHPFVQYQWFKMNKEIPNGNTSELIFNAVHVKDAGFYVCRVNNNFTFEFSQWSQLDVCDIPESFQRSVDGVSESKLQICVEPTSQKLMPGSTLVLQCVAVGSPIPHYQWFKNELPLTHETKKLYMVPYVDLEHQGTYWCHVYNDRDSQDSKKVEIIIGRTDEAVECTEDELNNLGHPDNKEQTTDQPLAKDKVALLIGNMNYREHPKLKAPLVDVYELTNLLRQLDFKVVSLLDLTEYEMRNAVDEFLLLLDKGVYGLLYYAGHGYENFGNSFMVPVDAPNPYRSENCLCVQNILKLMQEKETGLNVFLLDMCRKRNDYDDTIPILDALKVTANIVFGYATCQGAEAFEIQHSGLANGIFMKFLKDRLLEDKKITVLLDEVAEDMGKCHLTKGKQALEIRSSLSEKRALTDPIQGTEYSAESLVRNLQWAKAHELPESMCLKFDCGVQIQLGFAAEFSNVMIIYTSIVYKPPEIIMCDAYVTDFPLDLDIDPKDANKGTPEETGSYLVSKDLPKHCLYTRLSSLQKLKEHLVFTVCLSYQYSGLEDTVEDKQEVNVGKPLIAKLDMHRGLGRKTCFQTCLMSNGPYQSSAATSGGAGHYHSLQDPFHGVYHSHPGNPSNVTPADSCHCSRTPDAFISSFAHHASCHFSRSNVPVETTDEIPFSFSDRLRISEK

How did the IC50 turn out when `N/C(=N\S(=O)(=O)c1ccccc1)NCc1cnc(-c2ccc(Cl)cc2)c(-c2cccc(Cl)c2)c1` [Compound of Example 15, N-(amino(((5-(3-chlorophenyl)-6-(4-chlorophenyl)pyridin-3-yl)methyl)amino)methylene)benzenesulfonamide] was run?
The IC50 was 308 nM.

`N/C(=N\S(=O)(=O)C1CC1)NCc1cnc(-c2ccc(Cl)cc2)c(-c2ccc(Cl)cc2)c1` [Compound of Example 58, N-(amino(((5,6-bis(4-chlorophenyl)pyridin-3-yl)methyl)amino)methylene)cyclopropanesulfonamide] was tested. Which IC50 did it give?
Its IC50 is 743 nM.

`N/C(=N\C(=O)c1ccccc1)NCc1cnc(-c2ccc(Cl)cc2)c(-c2ccc(Cl)cc2)c1` [Compound of Example 34, N-(amino(((5,6-bis(4-chlorophenyl)pyridin-3-yl)methyl)amino)methylene)benzamide] was tested. Which IC50 did it give?
The IC50 was 817 nM.

Which IC50 does the source give for `N/C(=N\S(=O)(=O)c1ccco1)NCc1cnc(-c2ccc(Cl)cc2)c(-c2ccc(Cl)cc2)c1` [Compound of Example 31, N-(amino(((5,6-bis(4-chlorophenyl)pyridin-3-yl)methyl)amino)methylene)furan-2-sulfonamide] here?
Its IC50 is 102 nM.

Which IC50 does the source give for `CCCCCC(=O)/N=C(\N)NCc1cnc(-c2ccc(Cl)cc2)c(-c2ccc(Cl)cc2)c1` [Compound of Example 65, N-(amino(((5,6-bis(4-chlorophenyl)pyridin-3-yl)methyl)amino)methylene)hexanamide] here?
The IC50 was 462 nM.

How did the IC50 turn out when `N/C(=N\S(=O)(=O)c1ccccc1)NCc1cnc(-c2ccc(Cl)cc2O)c(-c2ccc(Cl)cc2)c1` [Compound of Example 97, N-(amino(((6-(4-chloro-2-hydroxyphenyl)-5-(4-chlorophenyl)pyridin-3-yl)methyl)amino)methylene)benzenesulfonamide] was run?
Its IC50 is 922 nM.

For `N/C(=N\S(=O)(=O)c1ccc(Cl)s1)NCc1cnc(-c2ccc(Cl)cc2)c(-c2ccc(Cl)cc2)c1` [Compound of Example 54, N-(amino(((5,6-bis(4-chlorophenyl)pyridin-3-yl)methyl)amino)methylene)-5-chlorothiophene-2-sulfonamide], which IC50 is on record?
Its IC50 is 169 nM.

With `N#Cc1ccc(S(=O)(=O)/N=C(\N)NCc2cnc(-c3ccc(Cl)cc3)c(-c3ccc(Cl)cc3)c2)cn1` [Compound of Example 52, N-(amino(((5,6-bis(4-chlorophenyl)pyridin-3-yl)methyl)amino)methylene)-6-cyanopyridine-3-sulfonamide] as the compound, how does the IC50 read?
Its IC50 is 390 nM.

With `N/C(=N\S(=O)(=O)c1ccccc1)NCc1cnc(-c2ccccc2)c(-c2ccc(Cl)cc2)c1` [Compound of Example 3, N-(amino(((5-(4-chlorophenyl)-6-phenylpyridin-3-yl)methyl)amino)methylene)benzenesulfonamide] as the compound, how does the IC50 read?
Its IC50 is 705 nM.

`N#Cc1ccc(C(=O)/N=C(\N)NCc2cnc(-c3ccc(Cl)cc3)c(-c3ccc(Cl)cc3)c2)cc1` [Compound of Example 62, N-(amino(((5,6-bis(4-chlorophenyl)pyridin-3-yl)methyl)amino)methylene)-4-cyanobenzamide] was tested. Which IC50 did it give?
Its IC50 is 471 nM.

`N/C(=N\S(=O)(=O)c1ccc(F)cc1)NCc1cnc(-c2ccc(Cl)cc2)c(-c2ccc(Cl)cc2)c1` [Compound of Example 28, N-(amino(((5,6-bis(4-chlorophenyl)pyridin-3-yl)methyl)amino)methylene)-4-fluorobenzenesulfonamide] was tested. Which IC50 did it give?
Its IC50 is 356 nM.

For `N/C(=N\C(=O)c1ccccn1)NCc1cnc(-c2ccc(Cl)cc2)c(-c2ccc(Cl)cc2)c1` [Compound of Example 82, N-(amino(((5,6-bis(4-chlorophenyl)pyridin-3-yl)methyl)amino)methylene)picolinamide], which IC50 is on record?
Its IC50 is 744 nM.

With `N/C(=N\C(=O)c1ccc(C(F)(F)F)cc1)NCc1cnc(-c2ccc(Cl)cc2)c(-c2ccc(Cl)cc2)c1` [Compound of Example 77, N-(amino(((5,6-bis(4-chlorophenyl)pyridin-3-yl)methyl)amino)methylene)-4-trifluoromethylbenzamide] as the compound, how does the IC50 read?
Its IC50 is 817 nM.

How did the IC50 turn out when `N/C(=N\S(=O)(=O)c1ccccc1)NCc1cnc(-c2ccc(O)cc2)c(-c2ccc(Cl)cc2)c1` [Compound of Example 95, N-(amino(((5-(4-chlorophenyl)-6-(4-hydroxyphenyl)pyridin-3-yl)methyl)amino)methylene)benzenesulfonamide Hydrochloride] was run?
The IC50 was 1030 nM.

How did the IC50 turn out when `N/C(=N\C(=O)C1CCCCC1)NCc1cnc(-c2ccc(Cl)cc2)c(-c2ccc(Cl)cc2)c1` [Compound of Example 73, N-(amino(((5,6-bis(4-chlorophenyl)pyridin-3-yl)methyl)amino)methylene)cyclohexanecarboxamide Hydrochloride] was run?
Its IC50 is 300 nM.
